According to paper PMC9399058, “Preclinical evaluation of FAP-2286 for fibroblast activation protein targeted radionuclide imaging and therapy” (European Journal of Nuclear Medicine and Molecular Imaging, 2022):
Where two headings read alike, the source gives them in different places.

Experiments:
[1] = Plasma stability assay, mouse plasma; format: in vitro ADME; conditions: 24 h at 37 °C
Experimental: FAP-2286 was incubated in human or mouse plasma at 37 °C for 24 h. Compound concentration was measured using HPLC–MS/MS (Agilent Technologies) and percent concentration remaining was calculated.
FAP-2286 was incubated in 50 µL of plasma with 3.8% sodium citrate as anticoagulant at a concentration of 10 µM. After 1, 2, 4, and 24 hours incubation at 37°C a suitable internal standard was added. FAP-2286 with plasma proteins were precipitated using 150 µL of a precipitation agent consisting of 77% 0.1 M zinc sulfate solution and 23% acetonitrile. Precipitation was carried out on ice for 30 minutes. […]
A nonincubated plasma sample spiked with 10 µM sample concentration was prepared in the same way and was used as the reference. […] The samples were analyzed using an Agilent 1290 UHPLC system coupled to an Agilent 6530 QTOF mass spectrometer.
For the quantitative data analysis, the Agilent Quantitative Analysis B.08.00 software (RRID:SCR_015040) was used. […] The concentration of the compound was determined by external matrix calibration using 6 calibration samples (1, 2.5, 5, 7.5, 10, and 12.5 µM). […] Carryover was determined by analyzing the blank sample directly after the highest calibration sample and comparing the determined peak areas. Recovery was calculated as the ratio between the spiked concentration of the recovery sample and the concentration calculated from the peak area of this sample.

HEK-FAP xenografts = assay: SPECT/CT biodistribution and tumor dosimetry of 177Lu-labeled tracers in HEK-FAP tumor-bearing mice; format: in vivo, mouse; conditions: 177Lu-labeled, HEK-FAP tumors
Experimental: (§1) HEK-FAP cell line was generated using the vector pTAR to insert FAP complementary DNA by recombinase-mediated cassette exchange into the pre-tagged HEK293 cells (InSCREENeX). For in vivo HEK-FAP studies, female nude or SCID beige mice (Charles River Laboratories) were subcutaneously implanted with 5 × 10^6 HEK-FAP cells in 150 µL serum-free media:Matrigel (1:1) (Corning). For the patient-derived xenograft (PDX) efficacy study, female NMRI nu/nu mice (Janvier Labs) were subcutaneously implanted with Sarc4809 fragments (Experimental Pharmacology & Oncology Berlin-Buch). All animal experiments were carried out under licenses approved by the respective authorities and in compliance with guidelines on animal welfare.
(§2) Thirty megabecquerels (30 MBq/nmol) ^111In-FAP-2286 (n = 9) or ^111In-FAPI-04 (n = 6) was injected intravenously (IV) into HEK-FAP tumor-bearing mice and the distribution of the radiotracers was assessed using the NanoSPECT/computed tomography (CT) system (Mediso). For PET imaging, 10 MBq of ^68Ga-FAP-2286 or ^68Ga-FAPI-46 (10 MBq/nmol) was given IV into HEK-FAP tumor-bearing mice (n = 3) followed by PET/CT analysis using the nanoScan PET/CT system (Mediso). For SPECT imaging of ^177Lu-labeled FAP-2286 or ^177Lu-labeled FAPI-46, 30 MBq was administered IV (30 MBq/nmol; n = 3) and the distribution of the radiotracers was assessed using the nanoScan SPECT/CT system (Mediso).
(§3) The animal studies were conducted in different laboratories. ^111In-Imaging and efficacy studies using the HEK-FAP model and different doses of ^177Lu-FAP-2286 as well as the Sarc4809 PDX efficacy study took place at Berlin Experimental Imaging Center (BERIC, Germany). The Sarc4809 model was originally derived from a primary lesion of undifferentiated pleomorphic sarcoma. These studies were performed in either female swiss nude (Charles River Laboratories, France – ^111In-Imaging), NMRI nude (Janvier Labs, France – PDX efficacy study) or SCID beige mice (Charles River Laboratories, Germany - ^111In-Imaging). ^68Ga-Imaging and comparative studies with ^177Lu labeled FAP-2286 and FAPI-46 were performed at Minerva Imaging ApS, Denmark using female athymic nude mice (Charles River Laboratories, Germany). For all experiments animals were ordered with an age of approximately 6 weeks. Animals were allowed an acclimatization period of at least one week prior to inoculation. Animals were housed in an animal room with 12 hours light and 12 hours darkness with free access to food and water. A maximum number of 5 animals were housed in the same cage, cages were equipped with nesting material and plastic or paper houses for hiding. Each cage was labeled with study ID, group and animal numbers and test compound. For efficacy studies animals were randomized according to tumor size. Animals were checked daily for any signs of illness or abnormal behavior. Main humane endpoints were defined as tumor volumes > 1500 mm^3, tumor burden > 10% of animal weight, body weight loss >15% and tumor ulceration. When reaching one of these criteria the animal was sacrificed by cervical dislocation. All animal experiments were approved either by the Regional Office for Health and Social Affairs Berlin (LAGeSo), Germany or the National Animal Experiments Inspectorate under the Ministry of Environment and Food of Denmark.
(§4) Imaging and image analysis were performed as described. During the scan, mice were kept under isoflurane anesthesia, and body temperature was maintained under warm air. The following acquisition parameters were used for the respective imaging modality.
(§5) For quantification, VivoQuant (InviCRO) was used to draw regions of interest (ROIs) in relevant tissues, with a ROI drawn over the left ventricle of the heart to serve as blood pool surrogate. […]

[2] = PET/CT biodistribution of 68Ga-labeled tracers in HEK-FAP tumor-bearing mice; conditions: mouse, in vivo, 10 MBq IV, n=3
Experimental: as §1
as §2, with “(Mediso). […]” for “(Mediso). For PET imaging, 10 MBq of ^68Ga-FAP-2286 or ^68Ga-FAPI-46 (10 MBq/nmol) was given IV into HEK-FAP tumor-bearing mice (n = 3) followed by PET/CT analysis using the nanoScan PET/CT system (Mediso).”, “(Mediso). […]” for “(Mediso).”
as §5

neoplastic lesions = tested on: neoplastic lesions; parameters: method as in PMID 34168013; conditions: patients with pancreatic, breast, ovarian, or colorectal carcinomas ref 51; cited from earlier work
[3] = SPECT/CT biodistribution of 111In-labeled tracers in HEK-FAP tumor-bearing mice; format: in vivo, mouse; conditions: mouse; for tissue uptake at 1 h / tissue uptake at 3 h / tissue uptake at 6 h / tissue uptake at 24 h / tissue uptake at 48 h: in vivo
Experimental: as §1, §2, §3, §4, §5

In the case of CCCCCC(=O)N[C@H]1CSCc2cc(CSCCNC(=O)CN3CCN(CC(=O)O)CCN(CC(=O)O)CCN(CC(=O)O)CC3)cc(c2)CSC[C@@H](C(=O)O)NC(=O)[C@H](Cc2ccccc2)NC(=O)[C@H](CCC(N)=O)NC(=O)[C@H]([C@@H](C)O)NC(=O)[C@@H]2CCCN2C(=O)[C@@H]2CCCN2C1=O [FAP-2286], the “percent retained in mouse plasma” value [1] is reported as 85%, the “fold higher TIAC compared to FAPI-46” value (HEK-FAP xenografts) is reported as 12 fold and the “fold higher absorbed dose delivered to the tumors compared to FAPI-46” value (HEK-FAP xenografts) is reported as 9 fold.

For CCCCCC(=O)N[C@H]1CSCc2cc(CSCCNC(=O)CN3CCN(CC(=O)O)CCN(CC(=O)O)CCN(CC(=O)O)CC3)cc(c2)CSC[C@@H](C(=O)O)NC(=O)[C@H](Cc2ccccc2)NC(=O)[C@H](CCC(N)=O)NC(=O)[C@H]([C@@H](C)O)NC(=O)[C@@H]2CCCN2C(=O)[C@@H]2CCCN2C1=O [^68Ga-FAP-2286, metal not drawn], the tissue uptake at 0.5 h ([2]; 0.5 h after administration) is given as 9.8 %ID/g, the tissue uptake at 3 h ([2]; 3 h after injection) is given as 10.8 %ID/g and the “PET/CT uptake in patients” value (neoplastic lesions) is given as “significant uptake in neoplastic lesions and low presence in normal tissues”.

CCCCCC(=O)N[C@H]1CSCc2cc(CSCCNC(=O)CN3CCN(CC(=O)O)CCN(CC(=O)O)CCN(CC(=O)O)CC3)cc(c2)CSC[C@@H](C(=O)O)NC(=O)[C@H](Cc2ccccc2)NC(=O)[C@H](CCC(N)=O)NC(=O)[C@H]([C@@H](C)O)NC(=O)[C@@H]2CCCN2C(=O)[C@@H]2CCCN2C1=O [^111In-FAP-2286, metal not drawn] showed a tissue to tissue ratio at 1 h ([3]; female, tumor and kidney, iv, 30 MBq, total radioactivity, tumor-to-kidney, 1 h p.i., read-out: T/K ratio (mean ± SD)) of 3 ± 1.3, a tissue to tissue ratio at 3 h ([3]; female, tumor and kidney, iv, 30 MBq, total radioactivity, tumor-to-kidney, 3 h p.i., read-out: T/K ratio (mean ± SD)) of 4.6 ± 1.9 and a tissue to tissue ratio at 6 h ([3]; female, tumor and kidney, iv, 30 MBq, total radioactivity, tumor-to-kidney, 6 h p.i., read-out: T/K ratio (mean ± SD)) of 5 ± 2.8. The tissue to tissue ratio at 24 h ([3]; female, tumor and kidney, iv, 30 MBq, total radioactivity, tumor-to-kidney, 24 h p.i., read-out: T/K ratio (mean ± SD)) was 5.9 ± 3.3, the tissue to tissue ratio at 48 h ([3]; female, tumor and kidney, iv, 30 MBq, total radioactivity, tumor-to-kidney, 48 h p.i., read-out: T/K ratio (mean ± SD)) was 7.5 ± 4.8 and the tissue uptake at 1 h ([3]; 1 h p.i., read-out: Salivary Glands %ID/g (mean ± SD)) was 0.6 ± 0.4 %ID/g. It also gave a tissue uptake at 3 h ([3]; 3 h p.i., read-out: Salivary Glands %ID/g (mean ± SD)) of 0.2 ± 0.1 %ID/g, a tissue uptake at 6 h ([3]; 6 h p.i., read-out: Salivary Glands %ID/g (mean ± SD)) of 0.2 ± 0.2 %ID/g and a tissue uptake at 1 h ([3]; heart, 1 h p.i., read-out: Blood Pool Surrogate %ID/g (mean ± SD)) of 0.4 ± 0.1 %ID/g. For the same compound, the tissue uptake at 3 h ([3]; heart, 3 h p.i., read-out: Blood Pool Surrogate %ID/g (mean ± SD)) was 0.1 ± 0.1 %ID/g, the tissue uptake at 6 h ([3]; heart, 6 h p.i., read-out: Blood Pool Surrogate %ID/g (mean ± SD)) was 0.1 %ID/g and the tissue uptake at 1 h ([3]; iv, 1 h p.i., 30 MBq IV, HEK-FAP mice, n=9, read-out: Tumor %ID/g (mean ± SD)) was 11.1 ± 4.3 %ID/g. The tissue uptake at 1 h ([3]; iv, 1 h p.i., 30 MBq IV, HEK-FAP mice, read-out: Kidney %ID/g (mean ± SD)) was 3.9 ± 1 %ID/g, the tissue uptake at 1 h ([3]; iv, 1 h p.i., 30 MBq IV, HEK-FAP mice, read-out: Liver %ID/g (mean ± SD)) was 0.3 ± 0.1 %ID/g and the tissue uptake at 3 h ([3]; iv, 3 h p.i., 30 MBq IV, HEK-FAP mice, read-out: Kidney %ID/g (mean ± SD)) was 2.5 ± 0.4 %ID/g. It also gave a tissue uptake at 3 h ([3]; iv, 3 h p.i., 30 MBq IV, HEK-FAP mice, read-out: Liver %ID/g (mean ± SD)) of 0.2 ± 0.1 %ID/g, a tissue uptake at 6 h ([3]; iv, 6 h p.i., 30 MBq IV, HEK-FAP mice, n=9, read-out: Tumor %ID/g (mean ± SD)) of 11.4 ± 6.6 %ID/g and a tissue uptake at 6 h ([3]; iv, 6 h p.i., 30 MBq IV, HEK-FAP mice, read-out: Kidney %ID/g (mean ± SD)) of 2.2 ± 0.3 %ID/g. It also gave a tissue uptake at 6 h ([3]; iv, 6 h p.i., 30 MBq IV, HEK-FAP mice, read-out: Liver %ID/g (mean ± SD)) of 0.1 %ID/g, a tissue uptake at 24 h ([3]; iv, 24 h p.i., 30 MBq IV, HEK-FAP mice, n=9, read-out: Tumor %ID/g (mean ± SD)) of 9.7 ± 5.3 %ID/g and a tissue uptake at 24 h ([3]; iv, 24 h p.i., 30 MBq IV, HEK-FAP mice, read-out: Kidney %ID/g (mean ± SD)) of 1.6 ± 0.2 %ID/g. For the same compound, the tissue uptake at 24 h ([3]; iv, 24 h p.i., 30 MBq IV, HEK-FAP mice, read-out: Liver %ID/g (mean ± SD)) was 0.1 %ID/g, the tissue uptake at 48 h ([3]; iv, 48 h p.i., 30 MBq IV, HEK-FAP mice, n=9, read-out: Tumor %ID/g (mean ± SD)) was 9.1 ± 5 %ID/g and the tissue uptake at 48 h ([3]; iv, 48 h p.i., 30 MBq IV, HEK-FAP mice, read-out: Kidney %ID/g (mean ± SD)) was 1.3 ± 0.2 %ID/g. For the same compound, the tissue uptake at 48 h ([3]; iv, 48 h p.i., 30 MBq IV, HEK-FAP mice, read-out: Liver %ID/g (mean ± SD)) was 0.1 %ID/g, the tissue uptake at 1 h ([3]; non-tumor bearing shoulder, 1 h p.i., read-out: Shoulder %ID/g (mean ± SD)) was 1.2 ± 0.6 %ID/g and the tissue uptake at 3 h ([3]; non-tumor bearing shoulder, 3 h p.i., read-out: Shoulder %ID/g (mean ± SD)) was 0.4 ± 0.1 %ID/g. It also gave a tissue uptake at 6 h ([3]; non-tumor bearing shoulder, 6 h p.i., read-out: Shoulder %ID/g (mean ± SD)) of 0.1 ± 0.1 %ID/g, a tissue uptake at 24 h ([3]; non-tumor bearing shoulder, 24 h p.i., read-out: Shoulder %ID/g (mean ± SD)) of 0.1 %ID/g and a tissue uptake at 48 h ([3]; non-tumor bearing shoulder, 48 h p.i., read-out: Shoulder %ID/g (mean ± SD)) of 0.1 %ID/g.
